pIC50: −log10 of the molar value.
Biological target: T1, human macrophage elastase (HME/hMMP-12) (Homo sapiens, UniProt P39900)
T1 construct: purchased R&D Systems 917-MP
Assay: In vitro HME inhibition test (standard or high-sensitivity)
Format: biochemical
Conditions: in some cases mean values, rounded to two significant figures
Method: The potency of the compounds according to the invention with respect to HME (MMP-12) is determined in an in vitro inhibition test. The HME-mediated amidolytic cleavage of a suitable peptide substrate leads to an increase in fluorescent light therein. The signal intensity of the fluorescent light is directly proportional to the enzyme activity. The active concentration of a test compound at which half the enzyme is inhibited (50% signal intensity of the fluorescent light) is reported as the IC50 value.
In a 384 hole microtiter plate, in a total test volume of 41 μl, the test buffer (0.1 M HEPES pH 7.4, 0.15 M NaCl, 0.03 M CaCl2, 0.004 mM ZnCl2, 0.02 M EDTA, 0.005% Brij®), the enzyme (0.5 nM HME; R&D Systems, 917-MP, autocatalytic activation according to the manufacturer's instructions) and the intramolecularly quenched substrate [5 μM Mca-Pro-Leu-Gly-Leu-Glu-Glu-Ala-Dap(Dnp)-NH2; Bachem, M-2670] are incubated in the absence and presence of the test substance (as a solution in DMSO) at 37° C. for two hours. The fluorescence intensity of the test mixtures is measured (excitation […], emission 393 nm). The IC50 values are ascertained by plotting the fluorescent light intensity against the active ingredient concentration.
In this case, an enzyme concentration ten times lower is used (final concentration, e.g. 0.05 nM) in order to achieve an increased test sensitivity. The incubation period chosen for the test is correspondingly longer (e.g. 16 hours).

T1 sequence (P39900 106-470): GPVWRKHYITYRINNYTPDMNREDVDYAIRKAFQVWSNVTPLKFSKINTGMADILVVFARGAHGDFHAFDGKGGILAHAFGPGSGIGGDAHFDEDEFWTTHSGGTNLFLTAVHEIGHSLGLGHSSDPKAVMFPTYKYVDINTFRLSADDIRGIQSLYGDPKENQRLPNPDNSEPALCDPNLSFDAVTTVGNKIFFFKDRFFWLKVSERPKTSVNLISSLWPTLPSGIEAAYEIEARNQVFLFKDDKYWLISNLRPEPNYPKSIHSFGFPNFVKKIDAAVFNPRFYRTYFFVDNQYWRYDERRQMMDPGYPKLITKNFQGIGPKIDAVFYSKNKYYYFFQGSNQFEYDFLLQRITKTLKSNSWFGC

`CC(C)CCCOc1ccc2oc(C(=O)CC(CCn3nnc4ccccc4c3=O)C(=O)O)cc2c1` (racemic) [Example 40, (+/−)-4-{5-[(4-Methylpentyl)oxy]-1-benzofur-2-yl}-4-oxo-2-[2-(4-oxo-1,2,3-benzotriazin-3(4H)-yl)ethyl]butanoic acid] and `CC(C)CCCCOc1ccc2oc(C(=O)CC(CCn3nnc4ccccc4c3=O)C(=O)O)cc2c1` (racemic) [Example 41, (+/−)-4-{5-[(5-Methylhexyl)oxy]-1-benzofur-2-yl}-4-oxo-2-[2-(4-oxo-1,2,3-benzotriazin-3(4H)-yl)ethyl]butanoic acid] are within 0.2 log units of each other in pIC50: 8.34 for the first, 8.41 for the second.

Going from `O=C(CC(CCn1nnc2ccccc2c1=O)C(=O)O)c1cc2cc(OCCCc3ccc(C(F)(F)F)cc3)ccc2o1` (racemic) [Example 42, (+/−)-4-Oxo-2-[2-(4-oxo-1,2,3-benzotriazin-3(4H)-yl)ethyl]-4-(5-{3-[4-(trifluoromethyl)phenyl]propoxy}-1-benzofur-2-yl)butanoic acid] to `O=C(CC(CCn1nnc2ccccc2c1=O)C(=O)O)c1cc2cc(OCCCc3cccs3)ccc2o1` (racemic) [Example 46, (+/−)-4-Oxo-2-[2-(4-oxo-1,2,3-benzotriazin-3(4H)-yl)ethyl]-4-{5-[3-(2-thienyl)propoxy]-1-benzofur-2-yl}butanoic acid], the pIC50 rises from 8.49 to 8.72 (0.23 log units).

Going from `O=C(CC(CCn1nnc2ccccc2c1=O)C(=O)O)c1cc2cc(OCc3cccc(F)c3)ccc2o1` (racemic) [Example 43, (+/−)-4-{5-[(3-Fluorobenzyl)oxy]-1-benzofur-2-yl}-4-oxo-2-[2-(4-oxo-1,2,3-benzotriazin-3(4H)-yl)ethyl]butanoic acid] to `O=C(CC(CCn1nnc2ccccc2c1=O)C(=O)O)c1cc2cc(OCc3cc(F)ccc3F)ccc2o1` (racemic) [Example 49, (+/−)-4-{5-[(2,5-Difluorobenzyl)oxy]-1-benzofur-2-yl}-4-oxo-2-[2-(4-oxo-1,2,3-benzotriazin-3(4H)-yl)ethyl]butanoic acid], the pIC50 rises from 8.89 to 9.26 (0.37 log units).

`O=C(CC(CCn1nnc2ccccc2c1=O)C(=O)O)c1cc2cc(OCc3ccccc3F)ccc2o1` (racemic) [Example 45, (+/−)-4-{5-[(2-Fluorobenzyl)oxy]-1-benzofur-2-yl}-4-oxo-2-[2-(4-oxo-1,2,3-benzotriazin-3(4H)-yl)ethyl]butanoic acid] and `O=C(CC(CCn1nnc2ccccc2c1=O)C(=O)O)c1cc2cc(OCc3ccc(F)cc3F)ccc2o1` (racemic) [Example 52, (+/−)-4-{5-[(2,4-Difluorobenzyl)oxy]-1-benzofur-2-yl}-4-oxo-2-[2-(4-oxo-1,2,3-benzotriazin-3(4H)-yl)ethyl]butanoic acid] are within 0.2 log units of each other in pIC50: 8.64 for the first, 8.68 for the second.

Compared with `O=C(CC(CCn1nnc2ccccc2c1=O)C(=O)O)c1cc2cc(OCc3ccncc3)ccc2o1` (racemic) [Example 47, (+/−)-4-Oxo-2-[2-(4-oxo-1,2,3-benzotriazin-3(4H)-yl)ethyl]-4-[5-(pyridin-4-ylmethoxy)-1-benzofur-2-yl]butanoic acid], `Cc1c(COc2ccc3oc(C(=O)CC(CCn4nnc5ccccc5c4=O)C(=O)O)cc3c2)cccc1C(F)(F)F` (racemic) [Example 48, (+/−)-4-(5-{[2-Methyl-3-(trifluoromethyl)benzyl]oxy}-1-benzofur-2-yl)-4-oxo-2-[2-(4-oxo-1,2,3-benzotriazin-3(4H)-yl)ethyl]butanoic acid] is 0.63 log units lower in pIC50: 9.03 for the first, 8.40 for the second.

`N#CCCCCOc1ccc2oc(C(=O)CC(CCn3nnc4ccccc4c3=O)C(=O)O)cc2c1` (racemic) [Example 53, (+/−)-4-[5-(4-Cyanobutoxy)-1-benzofur-2-yl]-4-oxo-2-[2-(4-oxo-1,2,3-benzotriazin-3(4H)-yl)ethyl]butanoic acid] and `CCCCCOc1ccc2cc(C(=O)CC(CCn3nnc4ccccc4c3=O)C(=O)O)oc2c1` (racemic) [Example 55, (+/−)-4-Oxo-2-[2-(4-oxo-1,2,3-benzotriazin-3(4H)-yl)ethyl]-4-[6-(pentyloxy)-1-benzofur-2-yl]butanoic acid] are within 0.2 log units of each other in pIC50: 8.54 for the first, 8.43 for the second.

`O=C(CC(CCn1nnc2ccccc2c1=O)C(=O)O)c1cc2ccc(OCCC3CCOCC3)cc2o1` (racemic) [Example 54, (+/−)-4-Oxo-2-[2-(4-oxo-1,2,3-benzotriazin-3(4H)-yl)ethyl]-4-{6-[2-(tetrahydro-2H-pyran-4-yl)ethoxy]-1-benzofur-2-yl}butanoic acid] and `CCCCOc1ccc2cc(C(=O)CC(CCn3nnc4ccccc4c3=O)C(=O)O)oc2c1` (racemic) [Example 61, (+/−)-4-(6-Butoxy-1-benzofur-2-yl)-4-oxo-2-[2-(4-oxo-1,2,3-benzotriazin-3(4H)-yl)ethyl]butanoic acid] are within 0.2 log units of each other in pIC50: 8.25 for the first, 8.34 for the second.

`CCCCCCOc1ccc2cc(C(=O)CC(CCn3nnc4ccccc4c3=O)C(=O)O)oc2c1` (racemic) [Example 64, (+/−)-4-[6-(Hexyloxy)-1-benzofur-2-yl]-4-oxo-2-[2-(4-oxo-1,2,3-benzotriazin-3(4H)-yl)ethyl]butanoic acid] and `CCCCCCCOc1ccc2cc(C(=O)CC(CCn3nnc4ccccc4c3=O)C(=O)O)oc2c1` (racemic) [Example 67, (+/−)-4-[6-(Heptyloxy)-1-benzofur-2-yl]-4-oxo-2-[2-(4-oxo-1,2,3-benzotriazin-3(4H)-yl)ethyl]butanoic acid] are within 0.2 log units of each other in pIC50: 8.54 for the first, 8.42 for the second.

`CC(C)CCCOc1ccc2cc(C(=O)CC(CCn3nnc4ccccc4c3=O)C(=O)O)oc2c1` (racemic) [Example 70, (+/−)-4-{6-[(4-Methylpentyl)oxy]-1-benzofur-2-yl}-4-oxo-2-[2-(4-oxo-1,2,3-benzotriazin-3(4H)-yl)ethyl]butanoic acid] and `CC(C)CCCCOc1ccc2cc(C(=O)CC(CCn3nnc4ccccc4c3=O)C(=O)O)oc2c1` (racemic) [Example 72, (+/−)-4-{6-[(5-Methylhexyl)oxy]-1-benzofur-2-yl}-4-oxo-2-[2-(4-oxo-1,2,3-benzotriazin-3(4H)-yl)ethyl]butanoic acid] are within 0.2 log units of each other in pIC50: 8.39 for the first, 8.51 for the second.

Compared with `O=C(CC(CCn1nnc2ccccc2c1=O)C(=O)O)c1coc2cc(OCCC3CCCCC3)ccc12` (racemic) [Example 76, (+/−)-4-[6-(2-Cyclohexylethoxy)-1-benzofur-3-yl]-4-oxo-2-[2-(4-oxo-1,2,3-benzotriazin-3(4H)-yl)ethyl]butanoic acid], `O=C(CC(CCn1nnc2ccccc2c1=O)C(=O)O)c1coc2cc(OCC3CCCC3)ccc12` (racemic) [Example 78, (+/−)-4-[6-(Cyclopentylmethoxy)-1-benzofur-3-yl]-4-oxo-2-[2-(4-oxo-1,2,3-benzotriazin-3(4H)-yl)ethyl]butanoic acid] is 0.48 log units lower in pIC50: 9.18 for the first, 8.70 for the second.

Compared with `O=C(CC(CCn1nnc2ccccc2c1=O)C(=O)O)c1coc2cc(OCc3cccc(Cl)c3)ccc12` (racemic) [Example 77, (+/−)-4-{6-[(3-Chlorobenzyl)oxy]-1-benzofur-3-yl}-4-oxo-2-[2-(4-oxo-1,2,3-benzotriazin-3(4H)-yl)ethyl]butanoic acid], `O=C(CC(CCn1nnc2ccccc2c1=O)C(=O)O)c1coc2cc(OCc3ccc(Cl)c(Cl)c3)ccc12` (racemic) [Example 92, (+/−)-4-{6-[(3,4-Dichlorobenzyl)oxy]-1-benzofur-3-yl}-4-oxo-2-[2-(4-oxo-1,2,3-benzotriazin-3(4H)-yl)ethyl]butanoic acid] is 0.35 log units higher in pIC50: 8.54 for the first, 8.89 for the second. The second is the more potent here.

Going from `O=C(CC(CCn1nnc2ccccc2c1=O)C(=O)O)c1coc2cc(OCc3ccccc3)ccc12` (racemic) [Example 84, (+/−)-4-[6-(Benzyloxy)-1-benzofur-3-yl]-4-oxo-2-[2-(4-oxo-1,2,3-benzotriazin-3(4H)-yl)ethyl]butanoic acid] to `CCCOc1ccc2c(C(=O)CC(CCn3nnc4ccccc4c3=O)C(=O)O)coc2c1` (racemic) [Example 86, (+/−)-4-Oxo-2-[2-(4-oxo-1,2,3-benzotriazin-3(4H)-yl)ethyl]-4-(6-propoxy-1-benzofur-3-yl)butanoic acid], the pIC50 rises from 8.40 to 8.85 (0.45 log units).

First: O=C(CC(CCn1nnc2ccccc2c1=O)C(=O)O)c1coc2cc(OCC3CCOCC3)ccc12 (racemic) [Example 95, (+/−)-4-Oxo-2-[2-(4-oxo-1,2,3-benzotriazin-3(4H)-yl)ethyl]-4-[6-(tetrahydro-2H-pyran-4-ylmethoxy)-1-benzofur-3-yl]butanoic acid]
Second: CC(C)COc1ccc2c(C(=O)CC(CCn3nnc4ccccc4c3=O)C(=O)O)coc2c1 (racemic) [Example 104, (+/−)-4-(6-Isobutoxy-1-benzofur-3-yl)-4-oxo-2-[2-(4-oxo-1,2,3-benzotriazin-3(4H)-yl)ethyl]butanoic acid]
The pIC50 of the first is 0.26 log units higher: 9.22 for the first, 8.96 for the second. The first is the more potent here.

`CCCCCCOc1ccc2c(C(=O)CC(CCn3nnc4ccccc4c3=O)C(=O)O)coc2c1` (racemic) [Example 98, (+/−)-4-[6-(Hexyloxy)-1-benzofur-3-yl]-4-oxo-2-[2-(4-oxo-1,2,3-benzotriazin-3(4H)-yl)ethyl]butanoic acid] and `CCCCOc1ccc2c(C(=O)CC(CCn3nnc4ccccc4c3=O)C(=O)O)coc2c1` (racemic) [Example 107, (+/−)-4-(6-Butoxy-1-benzofur-3-yl)-4-oxo-2-[2-(4-oxo-1,2,3-benzotriazin-3(4H)-yl)ethyl]butanoic acid] are within 0.2 log units of each other in pIC50: 9.40 for the first, 9.21 for the second.
